Common to all, as to type: cell-based
One assay addresses Met (Homo sapiens, UniProt P08581). Description: Met autophosphorylation ELISA in PC-3 cells. The arrangement: endogenous in cells; host or cells: PC-3 prostate cancer cells (ATCC #CRL-1435). As to conditions: Table 3 Cellular Activities, HGF-stimulated, phospho-Met ELISA, read-out: c-Met IC50. The procedure: PC-3 prostate cancer cells (ATCC #CRL-1435) were seeded at 4×10^4 cells/well onto 24-well plates (Greiner #662165), in DMEM (Thermo Fisher #11995-040) containing 10% FBS (Thermo Fisher #26140-079), 1% MEM NEAA (Thermo Fisher #11140-050), 1% GlutaMax (Thermo Fisher #35050-061), and 1% Penicillin Streptomycin (Thermo Fisher #15140-122). PC-3 cells were incubated at 37° C., 5% CO2 for 24 h and then starved for 3 h in serum-free medium. Test compounds were serially diluted to produce an 8-point dose curve in fresh serum-free medium to a final concentration of 0.3% DMSO (vehicle) and added to the cells and incubated for 1 h. Cells were then stimulated with 100 ng/mL recombinant human HGF (R&D Systems #294-HG-250) for 10 min, washed with cold PBS, and immediately lysed with 130 μL of cold 1× lysis buffer [20 mM Tris, 137 mM sodium chloride, 2 mM EDTA, 10% glycerol, 1% NP-40 alternative, 1 mM activated sodium orthovanadate, 1 mM PefaBloc SC (Sigma-Aldrich #11429868001), protease/phosphatase inhibitor tablet (Thermo Fisher #A32959)]. Lysates were clarified by centrifugation and 100 μL/well added into the PathScan phospho-Met (panTyr) Sandwich ELISA (Cell Signaling Technology #7333). Assay was performed according to manufacturer's instructions. Positive control wells (100% activity) contained HGF-stimulated, DMSO-treated cell lysates. Negative control wells (0% activity) contained HGF-stimulated, reference inhibitor-treated cell lysates. IC50 values were calculated by nonlinear regression analysis using a 4-parameter logistic curve fit in ActivityBase XE (IDBS).

The target of another assay is T1, Mer (Homo sapiens, UniProt Q12866).
T1 construct: host or cells: 293A cells (Thermo Fisher #R70507)
T1 sequence (Q12866 21-999): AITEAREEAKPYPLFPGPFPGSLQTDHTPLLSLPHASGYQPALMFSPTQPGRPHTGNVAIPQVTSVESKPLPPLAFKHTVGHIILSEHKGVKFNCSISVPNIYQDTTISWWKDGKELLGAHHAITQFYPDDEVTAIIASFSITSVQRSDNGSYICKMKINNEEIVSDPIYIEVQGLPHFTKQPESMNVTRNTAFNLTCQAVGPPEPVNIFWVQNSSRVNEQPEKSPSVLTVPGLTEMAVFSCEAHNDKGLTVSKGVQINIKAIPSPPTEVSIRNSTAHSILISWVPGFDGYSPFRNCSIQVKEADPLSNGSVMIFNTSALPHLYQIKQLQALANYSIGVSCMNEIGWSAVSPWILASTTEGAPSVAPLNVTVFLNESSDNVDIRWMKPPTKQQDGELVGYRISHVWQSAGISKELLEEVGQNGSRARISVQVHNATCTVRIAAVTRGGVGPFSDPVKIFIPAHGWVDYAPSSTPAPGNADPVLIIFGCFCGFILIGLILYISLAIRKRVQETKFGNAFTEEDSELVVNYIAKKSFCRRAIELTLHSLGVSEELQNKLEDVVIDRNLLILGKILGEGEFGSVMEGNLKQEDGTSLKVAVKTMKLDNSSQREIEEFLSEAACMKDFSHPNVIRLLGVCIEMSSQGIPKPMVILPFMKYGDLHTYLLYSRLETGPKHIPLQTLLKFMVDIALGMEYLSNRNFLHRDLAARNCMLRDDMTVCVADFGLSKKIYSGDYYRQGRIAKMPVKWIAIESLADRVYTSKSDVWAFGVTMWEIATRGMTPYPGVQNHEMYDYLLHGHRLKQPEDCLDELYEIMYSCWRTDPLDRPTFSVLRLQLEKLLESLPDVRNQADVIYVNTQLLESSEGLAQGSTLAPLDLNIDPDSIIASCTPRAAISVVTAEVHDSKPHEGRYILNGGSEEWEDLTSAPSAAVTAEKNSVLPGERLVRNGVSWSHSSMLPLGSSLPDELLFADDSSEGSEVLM
Description: Mer autophosphorylation ELISA in transient transfected 293A cells. As to conditions: Table 3 Cellular Activities; MERTK-transfected 293A cells, phospho-Mer ELISA. The procedure: 293A cells (Thermo Fisher #R70507) were seeded at 1.5×10^6 cells/well onto 100 mm dish (Greiner #664169), in DMEM (Thermo Fisher #11995-040) containing 10% FBS (Thermo Fisher #26140-079), 1% MEM NEAA (Thermo Fisher #11140-050), 1% GlutaMax (Thermo Fisher #35050-061), and 1% Penicillin Streptomycin (Thermo Fisher #15140-122). 293A cells were incubated at 37° C., 5% CO2 for 24 h and then transfected with 6μg MERTK DNA (Genecopoeia #EX-Z8208-M02) using TransIT LT1 transfection reagent (Mirus-Bio #MIR2305). After 24 h incubation, the transfected 293A cells were seeded at 1×10^5 cells/well onto 96-well plates (Corning #3904) in DMEM growth medium overnight. Test compounds were serially diluted to produce an 8-point dose curve in fresh serum-free medium to a final concentration of 0.3% DMSO (vehicle) and added to the cells and incubated for 1 h. Cells were then immediately lysed with 150 μL of cold 1× lysis buffer […], 137 mM sodium chloride, 2 mM EDTA, 10% glycerol, 1% NP-40 alternative, 1 mM activated sodium orthovanadate, 1 mM PefaBloc SC (Sigma-Aldrich #11429868001), protease/phosphatase inhibitor tablet (Thermo Fisher #A32959)]. Lysates were clarified by centrifugation and 50 μL/well added into the human phospho-Mer DuoSet IC ELISA (R&D Systems #DYC2579-2). Assay was performed according to manufacturer's instructions and sample phospho-Mer concentrations were extrapolated using human phospho-Mer control (R&D Systems #841793) as a standard. Positive control wells (100% activity) contained DMSO-treated cell lysates. Negative control wells (0% activity) contained reference inhibitor-treated cell lysates. IC50 values were calculated by nonlinear regression analysis using a 4-parameter logistic curve fit in ActivityBase XE (IDBS).
On the technique in general: ELISA stands for enzyme-linked immunosorbent assay.

Another assay deals with KDR (Homo sapiens, UniProt P35968). Briefly: KDR autophosphorylation ELISA in HUVEC cells. The following applies: Table 3 Cellular Activities, VEGF165-stimulated, phospho-KDR ELISA. Further details: endogenous in cells; host or cells: HUVEC (Lonza #C2519A). Here is the method: Human umbilical vein endothelial cells or HUVEC (Lonza #C2519A) were seeded at 2×10^4 cells/well onto 96-well plates (Corning #3904), in EGM-2 growth medium (Lonza #CC-3162) containing 1% Penicillin Streptomycin (Thermo Fisher #15140-122). HUVEC cells were incubated at 37° C., 5% CO2 for 24 h and then starved for 24 h in serum-free EBM-2 basal medium (Lonza #CC-3156) containing 1% Penicillin Streptomycin. Test compounds were serially diluted to produce an 8-point dose curve in fresh serum-free medium to a final concentration of 0.3% DMSO (vehicle) and added to the cells and incubated for 1 h. Cells were then stimulated with 100 ng/mL recombinant human VEGF165 (R&D Systems #293-VE-500) for 5 min, washed with cold PBS, and immediately lysed with 130 μL of cold 1× lysis buffer [20 mM Tris, 137 mM sodium chloride, 2 mM EDTA, 10% glycerol, 1% NP-40 alternative, 1 mM activated sodium orthovanadate, 1 mM PefaBloc SC (Sigma-Aldrich #11429868001), protease/phosphatase inhibitor tablet (Thermo Fisher #A32959)]. Lysates were collected and 100 μL/well added into the human phospho-KDR DuoSet IC ELISA (R&D Systems #DYC1766-2). Assay was performed according to manufacturer's instructions and sample phospho-KDR concentrations were extrapolated using human phospho-KDR control (R&D Systems #841421) as a standard. Positive control wells (100% activity) contained VEGF165-stimulated, DMSO-treated cell lysates. Negative control wells (0% activity) contained non-stimulated cell lysates. IC50 values were calculated by nonlinear regression analysis using a 4-parameter logistic curve fit in ActivityBase XE (IDBS).

Bounds are passed on as bounds.

A word on the IC50: it is the concentration needed to halve the response being measured.

Sequence of Met (P08581 25-1390): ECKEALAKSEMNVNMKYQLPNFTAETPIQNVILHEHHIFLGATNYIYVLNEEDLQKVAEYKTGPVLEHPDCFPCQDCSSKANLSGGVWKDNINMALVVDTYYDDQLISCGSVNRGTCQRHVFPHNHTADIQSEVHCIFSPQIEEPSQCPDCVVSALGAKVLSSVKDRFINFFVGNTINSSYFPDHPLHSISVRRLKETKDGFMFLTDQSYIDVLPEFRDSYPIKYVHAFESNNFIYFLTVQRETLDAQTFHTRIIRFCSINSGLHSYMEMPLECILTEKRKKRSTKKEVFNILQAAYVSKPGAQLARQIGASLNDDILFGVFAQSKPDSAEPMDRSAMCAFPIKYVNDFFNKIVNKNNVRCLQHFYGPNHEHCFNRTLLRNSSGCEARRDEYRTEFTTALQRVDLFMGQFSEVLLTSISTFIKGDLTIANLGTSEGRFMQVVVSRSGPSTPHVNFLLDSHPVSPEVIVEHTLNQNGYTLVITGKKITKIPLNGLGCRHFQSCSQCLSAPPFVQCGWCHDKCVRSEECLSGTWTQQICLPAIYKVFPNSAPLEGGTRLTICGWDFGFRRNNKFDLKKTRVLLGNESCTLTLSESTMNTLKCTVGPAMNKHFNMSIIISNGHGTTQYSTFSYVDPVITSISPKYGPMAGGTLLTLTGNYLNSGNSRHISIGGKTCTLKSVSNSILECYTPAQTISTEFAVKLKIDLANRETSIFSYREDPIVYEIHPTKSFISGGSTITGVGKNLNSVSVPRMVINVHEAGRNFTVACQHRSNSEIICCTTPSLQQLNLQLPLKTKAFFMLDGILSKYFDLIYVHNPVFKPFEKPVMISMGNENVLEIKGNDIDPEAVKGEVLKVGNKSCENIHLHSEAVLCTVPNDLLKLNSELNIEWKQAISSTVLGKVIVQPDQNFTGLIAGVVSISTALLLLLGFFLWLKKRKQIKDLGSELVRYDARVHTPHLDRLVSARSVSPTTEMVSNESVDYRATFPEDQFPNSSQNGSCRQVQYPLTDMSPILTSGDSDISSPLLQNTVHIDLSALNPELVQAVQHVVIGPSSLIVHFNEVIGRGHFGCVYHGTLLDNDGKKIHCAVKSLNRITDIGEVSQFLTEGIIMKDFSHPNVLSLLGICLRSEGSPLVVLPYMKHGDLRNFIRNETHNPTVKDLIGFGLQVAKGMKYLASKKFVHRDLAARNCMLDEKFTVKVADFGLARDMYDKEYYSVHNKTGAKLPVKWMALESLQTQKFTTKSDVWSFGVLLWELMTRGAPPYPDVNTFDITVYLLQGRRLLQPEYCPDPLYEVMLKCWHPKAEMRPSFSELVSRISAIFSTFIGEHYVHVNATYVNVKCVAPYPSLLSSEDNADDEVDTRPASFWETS
Sequence of KDR (P35968 20-1356): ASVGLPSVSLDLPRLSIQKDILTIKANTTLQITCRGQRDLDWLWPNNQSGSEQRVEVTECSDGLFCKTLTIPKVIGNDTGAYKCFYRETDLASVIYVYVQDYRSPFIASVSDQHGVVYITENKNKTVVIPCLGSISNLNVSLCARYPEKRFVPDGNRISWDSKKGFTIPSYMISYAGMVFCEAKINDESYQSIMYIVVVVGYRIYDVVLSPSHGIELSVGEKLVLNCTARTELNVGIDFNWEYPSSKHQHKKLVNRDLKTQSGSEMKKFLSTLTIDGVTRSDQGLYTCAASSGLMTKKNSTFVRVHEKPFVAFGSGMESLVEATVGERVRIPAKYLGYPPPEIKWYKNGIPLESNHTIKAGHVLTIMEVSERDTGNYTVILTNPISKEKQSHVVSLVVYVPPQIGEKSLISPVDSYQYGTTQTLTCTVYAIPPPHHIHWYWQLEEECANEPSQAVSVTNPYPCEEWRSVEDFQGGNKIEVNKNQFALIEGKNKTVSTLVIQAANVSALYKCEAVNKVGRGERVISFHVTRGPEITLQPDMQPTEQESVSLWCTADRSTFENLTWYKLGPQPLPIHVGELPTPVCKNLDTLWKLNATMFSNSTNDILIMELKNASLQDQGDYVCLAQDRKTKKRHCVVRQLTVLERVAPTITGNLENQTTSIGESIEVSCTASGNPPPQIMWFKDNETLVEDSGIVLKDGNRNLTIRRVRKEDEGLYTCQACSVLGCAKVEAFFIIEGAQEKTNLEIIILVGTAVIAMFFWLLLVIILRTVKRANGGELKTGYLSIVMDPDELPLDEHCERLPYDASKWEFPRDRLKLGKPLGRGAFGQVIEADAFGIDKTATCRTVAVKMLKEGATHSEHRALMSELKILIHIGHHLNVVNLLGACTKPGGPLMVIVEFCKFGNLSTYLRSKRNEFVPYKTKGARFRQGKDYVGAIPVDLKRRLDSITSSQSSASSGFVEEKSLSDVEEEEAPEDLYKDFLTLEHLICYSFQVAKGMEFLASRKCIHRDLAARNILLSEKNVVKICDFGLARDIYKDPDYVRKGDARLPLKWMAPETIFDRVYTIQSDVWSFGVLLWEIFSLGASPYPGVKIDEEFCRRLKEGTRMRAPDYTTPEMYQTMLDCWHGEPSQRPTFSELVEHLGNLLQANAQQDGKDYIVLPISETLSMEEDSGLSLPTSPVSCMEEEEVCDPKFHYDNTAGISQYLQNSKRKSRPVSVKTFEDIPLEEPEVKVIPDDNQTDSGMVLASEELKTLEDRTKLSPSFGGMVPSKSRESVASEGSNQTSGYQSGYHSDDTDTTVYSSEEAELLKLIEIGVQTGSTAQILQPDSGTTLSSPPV

For `COc1cc2nccc(Oc3ccc(NC(=O)c4c5n(c(C)c(-c6ccco6)c4=O)CCOC5)cc3F)c2nc1OC` [Compound 314, N-[4-[(6,7-Dimethoxy-1,5-naphthyridin-4-yl)oxy]-3-fluorophenyl]-7-(furan-2-yl)-6-methyl-8-oxo-3,4-dihydro-1H-pyrido[2,1-c][1,4]oxazine-9-carboxamide], the IC50 at Met and at Mer was not above 100 nM throughout.

Consider `COc1cnc2c(Oc3ccc(NC(=O)c4c(C)n(C)c(C)c(-c5ccco5)c4=O)cc3F)ccnc2c1` [Compound 162, N-[3-Fluoro-4-[(7-methoxy-1,5-naphthyridin-4-yl)oxy]phenyl]-5-(furan-2-yl)-1,2,6-trimethyl-4-oxopyridine-3-carboxamide], for which the IC50 is not above 100 nM at Met, 300 to 1000 nM against KDR and not above 100 nM against Mer.

In the case of `COc1cc2nccc(Oc3ccc(NC(=O)c4c(C)ncc(-c5ccoc5)c4O)cc3F)c2nc1OC` [Compound 122, N-[4-[(6,7-Dimethoxy-1,5-naphthyridin-4-yl)oxy]-3-fluorophenyl]-5-(furan-3-yl)-4-hydroxy-2-methylpyridine-3-carboxamide], the IC50 on Met, on KDR and against Mer was not above 100 nM throughout.

With `COc1cc2nccc(Oc3ccc(NC(=O)c4c5n(cc(-c6ccsc6)c4=O)CCOC5)cc3)c2nc1OC` [Compound 301, N-[4-[(6,7-Dimethoxy-1,5-naphthyridin-4-yl)oxy]phenyl]-8-oxo-7-thiophen-3-yl-3,4-dihydro-1H-pyrido[2,1-c][1,4]oxazine-9-carboxamide], the results for the IC50 on Met, on KDR and against Mer were not above 100 nM, 300 to 1000 nM and not above 100 nM, respectively.

`COc1cc2nccc(Oc3ccc(NC(=O)c4c5n(c(C)c(-c6ccsc6)c4=O)CCOC5)cc3)c2nc1OC` [Compound 312, N-[4-[(6,7-Dimethoxy-1,5-naphthyridin-4-yl)oxy]phenyl]-6-methyl-8-oxo-7-thiophen-3-yl-3,4-dihydro-1H-pyrido [2,1-c][1,4]oxazine-9-carboxamide]: the concentration for half-maximal inhibition (IC50) at Met and at Mer was not above 100 nM in each case.

For the compound `COc1cc2nccc(Oc3ccc(NC(=O)c4c5n(c(C)c(-c6cc(C)cs6)c4=O)CCOC5)cc3)c2nc1OC` [Compound 313, N-[4-[(6,7-Dimethoxy-1,5-naphthyridin-4-yl)oxy]phenyl]-6-methyl-7-(4-methylthiophen-2-yl)-8-oxo-3,4-dihydro-1H-pyrido[2,1-c][1,4]oxazine-9-carboxamide], the values for the IC50 at Met and against Mer were 100 to 300 nM and not above 100 nM, respectively.

In the case of `COc1cc2nccc(Oc3ccc(NC(=O)c4c5n(c(C)c(-c6ccco6)c4=O)CCOC5)cc3)c2nc1OC` [Compound 315, N-[4-[(6,7-Dimethoxy-1,5-naphthyridin-4-yl)oxy]phenyl]-7-(furan-2-yl)-6-methyl-8-oxo-3,4-dihydro-1H-pyrido[2,1-c][1,4]oxazine-9-carboxamide], the IC50 on Met and against Mer was not above 100 nM each time.

With `COc1cc2nccc(Oc3ccc(NC(=O)c4c5n(c(C)c(-c6cccs6)c4=O)CCOC5)cc3)c2nc1OC` [Compound 316, N-[4-[(6,7-Dimethoxy-1,5-naphthyridin-4-yl)oxy]phenyl]-6-methyl-8-oxo-7-thiophen-2-yl-3,4-dihydro-1H-pyrido [2,1-c][1,4]oxazine-9-carboxamide], the IC50 at Met and against Mer was not above 100 nM in each case.

As to `CCOc1ccc(-n2c(C)ccc(C(=O)Nc3ccc(Oc4ccnc5cc(OC)cnc45)c(F)c3)c2=O)nc1` [Compound 213, 1-(5-Ethoxypyridin-2-yl)-N-[3-fluoro-4-[(7-methoxy-1,5-naphthyridin-4-yl)oxy]phenyl]-6-methyl-2-oxopyridine-3-carboxamide], the IC50 on Met was 300 to 1000 nM.

In the case of `CCOc1ccc(-n2c(C)ccc(C(=O)Nc3ccc(Oc4ccnc5cc(OC)c(OC)nc45)c(F)c3)c2=O)nc1` [Compound 212, N-[4-[(6,7-Dimethoxy-1,5-naphthyridin-4-yl)oxy]-3-fluorophenyl]-1-(5-ethoxypyridin-2-yl)-6-methyl-2-oxopyridine-3-carboxamide], the IC50 at Met lay in the range of 100 to 300 nM.

For the compound `COc1cc2nccc(Oc3ccc(NC(=O)c4c5n(c(C)c(-c6ccoc6)c4=O)CCOC5)cc3)c2nc1OC` [Compound 311, N-[4-[(6,7-Dimethoxy-1,5-naphthyridin-4-yl)oxy]phenyl]-7-(furan-3-yl)-6-methyl-8-oxo-3,4-dihydro-1H-pyrido[2,1-c][1,4]oxazine-9-carboxamide], the IC50 on Met and against Mer was not above 100 nM in each case.
